“Also recorded” adds a separate entry of the source.
Legend:
[1] = test system: mAPP mice; assay: Morris water maze learning and memory in Alzheimer's Disease transgenic mice; format: in vivo; conditions: for latency to find the hidden platform: treated vs untreated AD mice; for number of crossings at the target location / percent of time spent in the target quadrant: treated vs untreated mAPP mice, probe trial
Protocol: Wild-type mice (Non Tg) were also administered Compound 8 (n=5) and vehicle (n=5). Each mouse was given four 60-second trials per day for six consecutive days to find the hidden platform in a Morris water maze.
Wild-type mice were also administered Compound 8 […]. Each mouse was given four 60-second trials per day for seven consecutive days to find the hidden platform in a Morris water maze.
Each mouse was given four 60-second trials per day for six consecutive days to find the hidden platform in a Morris water maze.
In addition, the effect of Compounds 4 and 8 on learning and memory of Alzheimer's Disease (AD) transgenic mice was evaluated. Six month and 9-14 month-old transgenic mice overexpressing a mutated form of the human amyloid precursor protein (mAPP mice) and their wild-type (non Tg) littermates were used in this study. […] Moreover, performance in a spatial MWM trial was evaluated using crossings over the platform area (an index of memory precision; Morris (1984) J. Neurosci. Methods 11:47-60), percent of time spent in target quadrant (an index of memory retrieval; Morris (1984) J. Neurosci. Methods 11:47-60), and swim paths.

[2] = test system: SK-N-SH cells; assay: ATP levels in Aβ-treated cells; format: cell-based; conditions: for ATP levels: 5 μM Aβ1-42 plus 1 μM inhibitor; for ATP levels, inhibitor alone: inhibitor without Aβ
Protocol: Forty-eight hour later, ATP levels (μmol mg^−1 protein) were measured in cell lysates.
To determine the effect of ABAD inhibitors on Aβ-induced impairment in energy metabolism, ATP levels were measured. […] ATP levels were measured in the cell lysates. […] Therefore, ABAD inhibitors can block mitochondrial dysfunction mediated by Aβ.

[3] = test system: ABAD; format: biochemical
Protocol: Before the assay, all the assay components except SAAC were pre-incubated for 5 minutes, and the reaction started with the addition of SAAC into the reaction mix. The reaction was carried out for a total 6 minutes at room temperature under steady-state conditions, and the decrease of NADH absorbance at 340 nm was determined every 10 seconds. Kinetic data were analyzed by PRISM (Scitech, San Diego, Calif.) to determine IC50 values and Ki. One unit of enzyme activity was defined as that which converted 1.0 μmol of substrate to product per minute.

[4] = test system: hippocampal long-term potentiation; assay: Hippocampal long-term potentiation (LTP) in slices from treated mice; format: in vivo; conditions: hippocampal slices from treated mAPP mice
Protocol: LTP was induced by theta-burst stimulation (TBS) 20 minutes after baseline recordings in hippocampal slices from Non-Tg mice treated with vehicle (n=9 slices from 3 mice), Non-Tg mice treated with Compound 8 (n=9 slices from 3 mice), mAPP mice treated with vehicle (n=8 slices from 3 mice), and mAPP mice treated with Compound 8 (n=8 slices from 3 mice). LTP is expressed as percentage potentiation of baseline (100%)(FIG. 5A).
LTP is expressed as percentage potentiation of baseline (100%)(FIG. 7A).
Synaptic failure in AD is largely reflected by impaired long-term synaptic plasticity in terms of long-term potentiation (LTP). […] Representative field excitatory post-synaptic potentials (fEPSP) waveforms are provided in FIGS. 5A and 7A and the residual potentiation from fEPSP slopes occurring over the last 5 minutes of LTP recording are provided in FIGS. 5B and 7B.

Compound | latency to find the hidden platform [1] | number of crossings at the target location [1] | percent of time spent in the target quadrant [1] | ATP levels [2] | ATP levels, inhibitor alone [2] | inhibitory effect on SAAC reduction by ABAD [3] | hippocampal long-term potentiation (LTP) [4]
COC(=O)c1cc([C@H](Nc2nc3ccc(OC)cc3s2)P(=O)(OC)OC)ccc1O [Compound 4, Methyl 5-((dimethoxyphosphoryl)((6-methoxybenzo[d]thiazol-2-yl)amino)methyl)-2-hydroxybenzoate] | significantly shorter latency | significantly more | significantly more | rescued ATP levels | comparable to cells treated with vehicle alone | modest inhibitory effect | impairments were diminished; also recorded: protective effects
COc1ccc2nc(N[C@@H](c3ccc(O)cc3)P(=O)(OC)OC)sc2c1 (racemic) [Compound 8, Dimethyl ((4-hydroxyphenyl)((6-methoxybenzo[d]thiazol-2-yl)amino)methyl)phosphonate] | significantly shorter latency | significantly more | significantly more | rescued ATP levels | comparable to cells treated with vehicle alone |  | impairments were diminished; also recorded: protective effects

Reference: patent publication US9738668B2
